Reference: EPA's ToxRefDB 2

How the values were obtained:
[1] = test system: mouse; conditions: Carcinogenicity; b6c3f1; Oral; Feed; dose end: 101 week; group: systemic; systemic / in life observation / body weight / body weight + systemic / pathology microscopic / urinary bladder / inflammation
[2] = test system: rat; conditions: Subchronic oral toxicity in rodents, fischer, Feed, dose end: 11 week, group: systemic, systemic / in life observation / body weight / body weight
[3] = test system: rat; conditions: Carcinogenicity, fischer, Oral, Feed, dose end: 100 week, group: systemic
[4] = test system: rabbit; conditions: Subchronic dermal toxicity, new zealand white, Topical, dose end: 13 week, group: systemic, systemic / in life observation / clinical signs / erythema + systemic / pathology gross / skin / [other] + systemic / pathology microscopic…
[5] = test system: mouse; conditions: Carcinogenicity, cd1, Oral, [Not Specified], dose end: 79 week, group: systemic
[6] = test system: rat; conditions: Subchronic oral toxicity in rodents, sprague dawley, Feed, dose end: 90 day, group: systemic, systemic / in life observation / body weight / body weight + systemic / in life observation / body weight / body weight gain
[7] = test system: rat; conditions: Combined chronic toxicity/carcinogenicity, sprague dawley, Oral, Feed, dose end: 24 month, group: systemic
[8] = test system: rat; conditions: Multigenerational reproductive toxicity study, sprague dawley, Oral, Feed, dose end: 2 generation
[9] = test system: dog; conditions: Subchronic oral toxicity in nonrodent, beagle, Feed, dose end: 13 week, group: systemic, systemic / in life observation / body weight / body weight gain + systemic / in life observation / clinical signs / anemia + systemic / in …
[10] = test system: dog; conditions: Chronic toxicity, beagle, Oral, Feed, dose end: 52 week, group: systemic
[11] = test system: rabbit; conditions: Prenatal developmental toxicity study, new zealand white, Oral, Gavage/Intubation, dose end: 28 GD
[12] = test system: rat; conditions: Prenatal developmental toxicity study, fischer, Oral, Feed, dose end: 20 GD
[13] = test system: rat; conditions: Subchronic oral toxicity in rodents, sprague dawley, Feed, dose end: 13 week, group: systemic, systemic / clinical chemistry / alanine aminotransferase (alt/sgpt) / alanine aminotransferase (alt/sgpt) + systemic / clinical chemistry / …
[14] = test system: mouse; conditions: Developmental neurotoxicity study; cd1; Oral; Feed; dose end: 63 PND; group: cannot be grouped; reproductive / offspring survival early / dead fetuses / dead fetuses
[15] = test system: rat; conditions: Multigenerational reproductive toxicity study, sprague dawley, Oral, Feed, dose end: 3 generation
[16] = test system: rat; conditions: Combined chronic toxicity/carcinogenicity, fischer, Oral, Feed, dose end: 105 week, group: systemic
[17] = test system: mouse; conditions: Combined chronic toxicity/carcinogenicity, b6c3f1, Oral, Feed, dose end: 105 week, group: systemic
[18] = systemic / in life observation / body weight / body weight + systemic / pathology gross / eye / opacity
[19] = systemic / in life observation / body weight / body weight + systemic / in life observation / food consumption / food consumption + systemic…
[20] = systemic / organ weight / liver / relative to body weight + systemic / pathology microscopic / liver / infiltration cellular
[21] = group: offspring, developmental / developmental landmark / preputial separation / preputial separation + systemic / in life observation / body weight / …
[22] = group: parental, systemic / in life observation / body weight / body weight + systemic / in life observation / body weight / body weight gain + systemic / …
[23] = group: reproductive, reproductive / offspring survival early / dead fetuses / dead fetuses
[24] = systemic / clinical chemistry / alanine aminotransferase (alt/sgpt) / alanine aminotransferase (alt/sgpt)
[25] = systemic / hematology / anemia / anemia - nos + systemic / hematology / erythrocyte (rbc) count differential / erythrocyte (rbc) + systemic…
[26] = group: developmental, developmental / developmental malformation / bone / ossification sites + developmental / developmental malformation / lung / absent + …
[27] = group: maternal, reproductive / reproductive performance / premature delivery / premature delivery + systemic / in life observation / clinical signs / …
[28] = group: developmental, systemic / in life observation / body weight / fetal weight
[29] = group: maternal, systemic / in life observation / body weight / body weight + systemic / in life observation / body weight / body weight gain + systemic / …
[30] = group: maternal, systemic / organ weight / liver / absolute + systemic / organ weight / liver / relative to body weight + systemic / in life observation / …
[31] = group: offspring, developmental / developmental landmark / vaginal opening / vaginal opening + systemic / in life observation / body weight / offspring (pup) …
[32] = group: parental, systemic / in life observation / body weight / body weight + systemic / organ weight / kidney / absolute + systemic / organ weight / kidney…
[33] = group: reproductive, reproductive / reproductive performance / fertility / fertility + reproductive / offspring survival early / litter size / litter size
[34] = systemic / in life observation / body weight / body weight gain
[35] = systemic / pathology microscopic / testes / degeneration + systemic / pathology microscopic / liver / carcinoma

Compound O=NN(c1ccccc1)c1ccccc1 [N-Nitrosodiphenylamine] has an LEL [1] of 347 mg/kg/day, an LOAEL [1] of 347 mg/kg/day and an NEL [1] of less than 347 mg/kg/day. It also gave an NOAEL [1] of less than 347 mg/kg/day, an LEL [2] of 200 mg/kg/day and an LOAEL [2] of 200 mg/kg/day. It also gave an LEL [3, 18] of 50 mg/kg/day, an NEL [3, 18] of less than 50 mg/kg/day and an LOAEL ([3]; systemic / pathology microscopic / urinary bladder / hyperplasia) of 200 mg/kg/day. The NOAEL ([3]; systemic / pathology microscopic / urinary bladder / hyperplasia + systemic / in life observation / body weight / body weight + systemic / …) was 50 mg/kg/day.
With O=C([O-])c1ccc2ccccc2c1.O=C([O-])c1ccc2ccccc2c1.[Zn+2] [Zinc naphthenate] the NOAEL [4] was less than 100 mg/kg/day.
CN/C(=N\[N+](=O)[O-])NCc1cnc(Cl)s1 [Clothianidin] gave an LOAEL ([5]; systemic / in life observation / body weight / body weight + systemic / in life observation / body weight / body weight gain) of 216 mg/kg/day, an NOAEL ([5]; systemic / in life observation / body weight / body weight + systemic / in life observation / body weight / body weight gain + systemic / …) of 65.1 mg/kg/day and an LEL ([5]; systemic / in life observation / clinical signs / excessive or spontaneous vocalization) of 171 mg/kg/day. For the same compound, the NEL ([5]; systemic / in life observation / clinical signs / excessive or spontaneous vocalization + systemic / in life observation / body weight / …) was 47.2 mg/kg/day, the LEL [6] was 202 mg/kg/day and the LOAEL [6] was 202 mg/kg/day. It also gave an NOAEL [6] of 27.9 mg/kg/day, an LOAEL [7, 19] of 97.8 mg/kg/day and an NOAEL [7, 19] of 32.5 mg/kg/day. The LEL [7, 20] was 9.7 mg/kg/day, the NEL [7, 20] was less than 9.7 mg/kg/day and the LEL [8, 21] was 34.3 mg/kg/day. For the same compound, the LOAEL [8, 21] was 34.3 mg/kg/day, the NEL [8, 21] was 10.7 mg/kg/day and the NOAEL [8, 21] was 10.7 mg/kg/day. For the same compound, the LEL [8, 22] was 163 mg/kg/day, the LOAEL [8, 22] was 163 mg/kg/day and the NEL [8, 22] was 31.2 mg/kg/day. It also gave an NOAEL [8, 22] of 31.2 mg/kg/day, an LEL [8, 23] of 31.2 mg/kg/day and an LOAEL [8, 23] of 31.2 mg/kg/day. The NEL [8, 23] was 9.8 mg/kg/day, the NOAEL [8, 23] was 9.8 mg/kg/day and the LEL [9] was 40.9 mg/kg/day. The LOAEL [9] was 40.9 mg/kg/day, the NEL [9] was 19.3 mg/kg/day and the NOAEL [9] was 19.3 mg/kg/day. It also gave an LEL [10, 24] of 36.3 mg/kg/day, an NEL [10, 24] of 16.6 mg/kg/day and an LOAEL [10, 25] of 52.9 mg/kg/day. It also gave an NOAEL [10, 25] of 40.1 mg/kg/day, an LOAEL ([11]; group: developmental, developmental / developmental malformation / bone / ossification sites + developmental / developmental malformation / lung / absent) of 75 mg/kg/day and an LEL [11, 26] of 75 mg/kg/day. It also gave an NEL [11, 26] of 25 mg/kg/day, an NOAEL [11, 26] of 25 mg/kg/day and an LEL [11, 27] of 75 mg/kg/day. The LOAEL [11, 27] was 75 mg/kg/day, the NEL [11, 27] was 25 mg/kg/day and the NOAEL [11, 27] was 25 mg/kg/day.
For CCCCC(CC)COC(=O)c1ccccc1C(=O)OCC(CC)CCCC (centres undefined) [Di(2-ethylhexyl) phthalate], the LEL [12, 28] was 666 mg/kg/day, the LOAEL [12, 28] was 666 mg/kg/day and the NEL [12, 28] was 357 mg/kg/day. For the same compound, the NOAEL [12, 28] was 357 mg/kg/day, the LOAEL [12, 29] was 666 mg/kg/day and the NOAEL [12, 29] was 357 mg/kg/day. The LEL [12, 30] was 357 mg/kg/day, the NEL [12, 30] was less than 357 mg/kg/day and the LEL [13] was 0.25 mg/kg/day. The LOAEL [13] was greater than 250 mg/kg/day, the NEL [13] was less than 0.25 mg/kg/day and the NOAEL [13] was no less than 250 mg/kg/day. The LEL [14] was 171 mg/kg/day, the NEL [14] was 56 mg/kg/day and the LEL [15, 31] was 391 mg/kg/day. The LOAEL [15, 31] was greater than 391 mg/kg/day, the NEL [15, 31] was 48 mg/kg/day and the NOAEL [15, 31] was no less than 391 mg/kg/day. It also gave an LOAEL [15, 32] greater than 391 mg/kg/day, an NEL [15, 32] of 14 mg/kg/day and an NOAEL [15, 32] of no less than 391 mg/kg/day. The LEL ([15]; group: parental, systemic / organ weight / liver / relative to body weight + systemic / pathology microscopic / kidney / dilatation + systemic / pathology …) was 48 mg/kg/day, the NEL ([15]; group: reproductive, reproductive / reproductive performance / fertility / fertility) was 48 mg/kg/day and the LEL [15, 33] was 391 mg/kg/day. It also gave an LOAEL [15, 33] greater than 391 mg/kg/day, an NOAEL [15, 33] of no less than 391 mg/kg/day and an LEL [16, 34] of 300 mg/kg/day. For the same compound, the NEL [16, 34] was less than 300 mg/kg/day, the NOAEL ([16]; systemic / in life observation / body weight / body weight gain + systemic / pathology microscopic / liver / carcinoma + systemic / in life …) was 300 mg/kg/day and the LOAEL ([16]; systemic / in life observation / body weight / body weight gain + systemic / pathology microscopic / testes / degeneration) was 600 mg/kg/day. It also gave an NEL ([17]; systemic / pathology microscopic / liver / carcinoma + systemic / in life observation / body weight / body weight + systemic / in life …) of 450 mg/kg/day, an LOAEL ([17]; systemic / pathology microscopic / testes / degeneration) of 900 mg/kg/day and an LEL [17, 35] of 900 mg/kg/day. It also gave an NOAEL [17, 35] of 450 mg/kg/day.
